Laboratory results published in patent US11730815B2, “Stable liquid pharmaceutical compositions comprising bendamustine” (GOOD HEALTH, LLC, priority 2018, dated 2023).
≈ marks a conversion by molar mass, not a printed value. Entries after “also recorded” stand apart in the source; their conditions may differ.

Columns and labels:
Assay type in all cases: physicochemical
[1] = Solubility of bendamustine in non-aqueous solvents in the presence of cyclodextrin; conditions: for solubility: organic solvent or mixture, thermodynamic from solid
Method: Bendamustine HCl was added to vials containing 50 mg of HPβCD per mL and PG, PEG 200, PEG 300, PEG 400, or PEG 600, and the mixtures were sonicated for about 8-10 minutes after each addition of bendamustine. The addition of bendamustine was stopped when the solutions remained turbid even after sonication for about 8-10 minutes.

[2] = Solubility of bendamustine in non-aqueous solvents; conditions: sonication; for solubility: organic solvent or mixture, thermodynamic from solid
Method: Bendamustine HCl was added in 5-10 mg increments to vials containing PG, PEG 200, PEG 300, PEG 400, and PEG 600, and the mixtures were sonicated. Sonication was stopped when the solution remained turbid after 8-10 minutes of sonication.
Note: The solubility might be slightly overestimated because of the generation of heat during long sonication.

[3] = Solubility of HPβCD in non-aqueous solvents; conditions: sonicated 10 minutes
Method: PG, PEG 200, PEG 300, PEG 400, and PEG 600 were added to vials containing hydroxy propyl-β-cyclodextrin (HPβCD) (50 mg) and sonicated for 10 minutes. […]

Cn1c(CCCC(=O)O)nc2cc(N(CCCl)CCCl)ccc21 [bendamustine, 4-(5-(bis(2-chloroethyl)amino)-1-methyl-1H-benzo[d]imidazol-2-yl)butanoic acid]
solubility ([1]; PEG 200 with 50 mg/mL HPβCD, in PEG 200 with 50 mg HPβCD per mL): 50 mg/mL
solubility ([1]; PEG 300 with 50 mg/mL HPβCD, in PEG 300 with 50 mg HPβCD per mL): 50 mg/mL
solubility ([1]; PEG 400 with 50 mg/mL HPβCD, in PEG 400 with 50 mg HPβCD per mL): 40 to 45 mg/mL
solubility ([1]; PEG 600 with 50 mg/mL HPβCD, in PEG 600 with 50 mg HPβCD per mL): 25 to 30 mg/mL
solubility ([1]; PG with 50 mg/mL HPβCD, in PG with 50 mg HPβCD per mL): 50 mg/mL
Appearance of resulting liquid mixture ([1]; in PEG 200 with 50 mg HPβCD per mL): Clear solution
Appearance of resulting liquid mixture ([1]; in PEG 300 with 50 mg HPβCD per mL): Clear solution
Appearance of resulting liquid mixture ([1]; in PEG 400 with 50 mg HPβCD per mL): Clear solution
Appearance of resulting liquid mixture ([1]; in PEG 600 with 50 mg HPβCD per mL): Clear solution
Appearance of resulting liquid mixture ([1]; in PG with 50 mg HPβCD per mL): Clear solution
solubility ([2]; PEG 200 (non-aqueous solvent), in PEG 200): > 50 mg/mL
solubility ([2]; PEG 300 (non-aqueous solvent), in PEG 300): > 50 mg/mL
solubility ([2]; PEG 400 (non-aqueous solvent), in PEG 400): 25 to 30 mg/mL (≈ 69.8 to 83.7 mM)
solubility ([2]; PEG 600 (non-aqueous solvent), in PEG 600): 8 to 10 mg/mL (≈ 22.3 to 27.9 mM)
solubility ([2]; PG (non-aqueous solvent), in PG): > 50 mg/mL
Solubility of bendamustine ([2]; in PEG 200): adequate
Solubility of bendamustine ([2]; in PEG 300): adequate
Solubility of bendamustine ([2]; in PEG 400): insufficient
Solubility of bendamustine ([2]; in PEG 600): insufficient
Solubility of bendamustine ([2]; in PG): adequate

hydroxy propyl-β-cyclodextrin [HPβCD]
Solubility of HPβCD: Physical observation ([3]; 50 mg HPβCD per mL of PEG 200): adequate; also recorded: Clear
Solubility of HPβCD: Physical observation ([3]; 50 mg HPβCD per mL of PEG 300): adequate; also recorded: Clear
Solubility of HPβCD: Physical observation ([3]; 50 mg HPβCD per mL of PEG 400): insoluble; also recorded: Turbid
Solubility of HPβCD: Physical observation ([3]; 50 mg HPβCD per mL of PEG 600): insoluble; also recorded: Turbid
Solubility of HPβCD: Physical observation ([3]; 50 mg HPβCD per mL of PG): adequate; also recorded: Clear
